# Values of other authors in patent US7638270B2, “Nucleic acids and corresponding proteins entitled 254P1D6B useful in treatment and detection of cancer” (Agensys, Inc., priority 2003, dated 2009).
# System: HLA-DR alleles
substance,measurement,setting,value
"xKXVAAWTLKAAx: pan-DR-binding epitope peptide (SEQ ID NO: 16); X is cyclohexylalanine, phenylalanine or tyrosine",binding to HLA-DR alleles,,bind to most HLA-DR alleles
same,stimulation of the response of T helper lymphocytes,regardless of HLA type,stimulate the response of T helper lymphocytes from most individuals
